Laboratory results taken from patent US20220143061A1, “3'3'-CYCLIC DINUCLEOTIDES AND PRODRUGS THEREOF” (INSTITUTE OF ORGANIC CHEMISTRY AND BIOCHEMISTRY ASCR, V.V.I., priority 2019, published 2022).
Read-outs that look alike come from different tables or passages of the source.

Columns and labels:
[1] = target: T1, human wild type STING (WT STING) (Homo sapiens, UniProt Q86WV6, H232R); assay: Digitonin assay using 293T wtSTING-FL reporter cells; format: cell-based; conditions: 293T wtSTING-FL cells, digitonin buffer 30 minutes, then 5 hours; ISRE firefly luciferase
T1 construct: host or cells: 293T cells (ATCC CRL-3216), stably double transfected with pUNO1-hSTING-WT and pGL64.27-4×ISRE
T1 sequence (Q86WV6 whole entry H232R): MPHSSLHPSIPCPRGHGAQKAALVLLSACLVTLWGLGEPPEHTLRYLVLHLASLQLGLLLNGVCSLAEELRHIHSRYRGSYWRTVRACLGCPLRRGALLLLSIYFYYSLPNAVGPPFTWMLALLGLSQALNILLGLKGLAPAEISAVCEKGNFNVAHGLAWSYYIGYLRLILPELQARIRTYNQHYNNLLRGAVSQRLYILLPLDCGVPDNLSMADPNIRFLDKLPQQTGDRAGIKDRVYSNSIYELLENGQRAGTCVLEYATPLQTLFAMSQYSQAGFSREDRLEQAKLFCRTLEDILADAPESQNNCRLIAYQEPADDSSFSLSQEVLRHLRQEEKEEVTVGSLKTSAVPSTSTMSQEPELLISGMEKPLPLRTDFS
Text: (§1) Two complementary oligonucleotides of the sequence […] […] […] […] […] The oligonucleotides were mixed in equal molar amounts, hybridized, and cleaved by restriction endonucleases HindIII (cat. #. R0104S, NEB, Ipswich, USA) and BglII (cat. #R0144S, NEB, Ipswich, USA). Ultimately, they were ligated into plasmid pGL4.27 (cat. #E6651, Promega, Madison, USA) linearized with the same enzymes. As result the sequence with four ISRE sites was placed upstream of the minimum promoter of firefly luciferase reporter gene.
(§2) After 5 minutes incubation at room temperature (RT), 250 μL of the mixture was added dropwise to the cells in one well. Cells were incubated 36 hours at 37° C. with 5% CO2, and then detached with 0.05% Trypsin and 0.22 g/L EDTA (both cat. #L0941, Biowest, Riverside, USA).
(§3) Transfected cells were seeded onto poly-D-lysine coated six well plates at density 50,000 cells per 1 cm^2 in DMEM medium with high glucose containing 10% heat inactivated FBS, 30 μg/mL blasticidin (cat. #ant-b1-05, InvivoGen, San Diego, USA), 0.06 mg/ml Penicillin G and 0.1 mg/ml Streptomycin Sulfate (both cat. #. L0018, Biowest, Riverside, USA). The medium was replenished every 3-4 days until visible colonies of cells resistant to blasticidin were formed.
(§4) Blasticidin resistant cells stably expressing WT STING were further transfected with pGL64.27-4×ISRE plasmid following the same procedure as described above. […] Homogeneous culture of stably double transfected cells was prepared by limiting dilution of cells in 96 well plates and wells with cells were selected that originated from a single cell.
The medium was removed next day and three fold serial dilutions of compounds in Digitonin buffer containing 50 mmol·l^−1 HEPES (cat. #H3375, Sigma Aldrich, Czech Republic) pH 7.0, 100 mmol·l^−1 KCl, 3 mmol·l^−1 MgCl2, 0.1 mmol·l^−1 DTT (cat. #D0632, Sigma Aldrich, Czech Republic), 85 mmol·l^−1 Sucrose (cat. #S7903, Sigma Aldrich, Czech Republic), 0.2% BSA (cat. #A2153, Sigma Aldrich, Czech Republic), 1 mmol·l^−1 ATP (cat. #A1852, Sigma Aldrich, Czech Republic), 0.1 mmol·l^−1 GTP (cat. #G8877, Sigma Aldrich, Czech Republic), and 10 μg/mL Digitonin A (cat. #D141, Sigma Aldrich, Czech Republic) were added to the cells. The buffer was removed after 30 minutes incubation at 37° C. with 5% C02, the cells were washed once with 100 μl of cultivation medium, and 100 μl of medium was added to each well. The plates with cells were incubated for 5 hours at 37° C. with 5% CO2, 50 μl of the medium was removed and 30 μl of ONE-Glo™ Luciferase Assay System reagent (cat. #E6120, Promega, Madison, USA) was added to each well. Luminesce was read on Synergy H1 (Biotek, Winooski, USA).

[2] = target: T2, AQ STING (G230A-R293Q) (Homo sapiens, UniProt Q86WV6, G230A/H232R/R293Q); assay: Differential Scanning Fluorimetry with AQ STING; format: binding; conditions: thermal shift vs apoprotein; 150 μM CDN; truncated AQ STING 0.1 mg/ml
T2 construct: 8xHis (N, cleaved yes); SUMO (N, cleaved yes); made in house
T2 sequence (Q86WV6 140-343 G230A/H232R/R293Q): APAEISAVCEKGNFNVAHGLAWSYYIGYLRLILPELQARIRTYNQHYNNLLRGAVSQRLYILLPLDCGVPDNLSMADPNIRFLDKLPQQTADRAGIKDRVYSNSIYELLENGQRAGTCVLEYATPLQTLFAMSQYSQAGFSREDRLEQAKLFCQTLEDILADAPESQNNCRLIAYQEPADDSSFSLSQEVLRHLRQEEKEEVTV
Protocol: (§5) Purified PCR products were cleaved with restriction enzymes BamHI (cat. #R0136S, NEB, Ipswich, USA) and NotI (cat. #R0189S, NEB, Ipswich, USA) and cloned into the pSUMO vector linearized with the identical enzymes.
(§6) DNase I (cat. #D5025, Sigma Aldrich, Czech Republic) and RNase A (cat. #R6513, Sigma Aldrich, Czech Republic) were added (final concentration 50 μg/ml) together with MgCl2 (final concentration 5 mmol·l^−1) to the homogenate and bacteria were lysed using French Press G-M™ High-Pressure Cell Press Homogenizer (1500 psi, 3 cycles). […] The resin was poured into a chromatography column, washed with 50 ml buffer A (50 mmol·l^−1 TrisCl (pH 8.0), 800 mmol·l^−1 NaCl, 3 mmol·l^−1 β-mercaptoethanol; 10% glycerol; 20 mmol·l^−1 imidazole) and 8-His-SUMO tagged STING proteins were eluted with 15 ml buffer A containing 300 mmol·l^−1 imidazole. […] Proteins were concentrated with Amicon® Ultra-15 10 K device (cat. #UFC901008, Merck Millipore, Billerica, USA) and flash frozen in liquid N2.
(§7) 20 μL solutions of the reaction mixtures were pipetted in triplicates into 96 well optical reaction plates and thermal denaturation of samples were performed on real time PCR cycler (LightCycler® 480 Instrument II—Roche, Basel, Switzerland). The first derivative of the thermal denaturation curves was performed to calculate denaturing temperatures of STING-CDN complexes and STING apoproteins. The thermal shift for each CDN was calculated by subtracting the average denaturing temperature of STING apoprotein from the average denaturing temperature of STING CDN complex.

[3] = target: T3, WT STING (Homo sapiens, UniProt Q86WV6, H232R); assay: Differential Scanning Fluorimetry with WT STING; format: binding; conditions: thermal shift vs apoprotein; 150 μM CDN; truncated WT STING 0.1 mg/ml
T3 construct: 8xHis (N, cleaved yes); SUMO (N, cleaved yes); made in house
T3 sequence (Q86WV6 140-343 H232R): as the sequence (Q86WV6 140-343 G230A/H232R/R293Q) above, with A91G, Q154R counted along it
Protocol: as §5, §6, §7

[4] = test system: peripheral blood mononuclear cell (PBMC); assay: Peripheral blood mononuclear cell assay (cytokine levels); format: cell-based; conditions: 1 h with compound, wash, 15 hour incubation, average of one to four donors
Protocol: Selected compounds were tested in an in vitro peripheral blood mononuclear cell (PBMC) assay. […] Serially diluted tested compounds were added to wells in 50 μl of cultivation medium and cell were incubated with compounds for 1 h at 37° C. with 5% CO2. Plates with cells were then spun 500 g for 5 minutes and medium was removed. Cells were washed twice with the cell culture medium by the use of centrifugation and gently resuspended in 100 μl medium without compounds. After 15 hour incubation at 37° C. with 5% CO2, the cell culture medium was collected and the levels of interferon-alpha (INF-α), interferon-gamma (INF-γ) and tumor necrosis factor-alpha (TNF-α) were determined with ProcartaPlex Assays (ThermoFisher, Waltham, USA) and MAGPIX System (Merck KGaA, Darmstadt, Germany). […] Values reported are an average of runs from one to four donors.

[5] = target: T1, human wild type STING (WT STING); assay: 293T WT STING standard reporter assay; format: cell-based; conditions: 293T wtSTING-FL cells, no digitonin, 7 hours; ISRE firefly luciferase; read-out: 293T WT STING EC50
Text: as §1, §2, §3, §4
The medium was removed the next day and three-fold serial dilutions of compounds in 100 μl medium were added to the cells. The plates were incubated for 7 hours at 37° C. with 5% CO2. Next 50 μl of the medium was removed from wells, and 30 μl of ONE-Glo™ Luciferase Assay System reagent (cat. #E6120, Promega, Madison, USA) was added to each well. Luminescence was read on Synergy H1 (Biotek, Winooski, USA).

SMILES	EC50 [1] [µM]	DSF ΔTm AQ STING [2] [°C]	DSF ΔTm WT STING [3] [°C]	EC50 [5] [µM]	EC50 ([4]; read-out: PBMC EC50 IFN-α) [µM]	EC50 ([4]; read-out: PBMC EC50 IFN-γ) [µM]	EC50 ([4]; read-out: PBMC EC50 TNF-α) [µM]
Nc1ncnc2c1ncn2[C@@H]1O[C@@H]2COP(=O)(S)O[C@H]3[C@@H](F)[C@H](n4cnc5c(N)ncnc54)O[C@@H]3COP(=O)(O)CO[C@H]2[C@H]1F (single isomer, unassigned) [Compound 11a]	0.01	9.3	4.8	4.5	400	130	90
Nc1ncnc2c1ncn2[C@@H]1O[C@@H]2COP(=O)(S)O[C@H]3[C@@H](F)[C@H](n4cnc5c(N)ncnc54)O[C@@H]3COP(=O)(O)CO[C@H]2[C@H]1F (single isomer, unassigned) [Compound 11b]	0.05	18.2	13.6	1.4	123	> 125	118
Nc1ncnc2c1ncn2[C@@H]1O[C@@H]2COP(=O)(O)O[C@H]3[C@@H](F)[C@H](n4cnc5c(N)ncnc54)O[C@@H]3COP(=O)(O)CO[C@H]2[C@H]1F [Compound 21, (2R,3R,3aR,7aR,9R,10R,10aR,15aR)-2,9-bis(6-amino-9H-purin-9-yl)-3,10-difluoro-5,13-dihydroxydecahydro-2H-difuro[3,2-d:3′,2′-k][1,3,7,10]tetraoxa[2,8]diphosphacyclotridecine 5,13-dioxide]	0.01	16.1	9.4	3.1	100	26	50

Continued, in another order:

EC50 [1] [µM]	DSF ΔTm AQ STING [2] [°C]	DSF ΔTm WT STING [3] [°C]	EC50 [5] [µM]	SMILES	EC50 ([4]; read-out: PBMC EC50 IFN-α) [µM]	EC50 ([4]; read-out: PBMC EC50 IFN-γ) [µM]	EC50 ([4]; read-out: PBMC EC50 TNF-α) [µM]
0.01	16.7	8.6	0.2	Nc1ncnc2c1ncn2[C@@H]1O[C@@H]2COP(=O)(S)O[C@H]3[C@@H](F)[C@H](n4cnc5c(N)ncnc54)O[C@@H]3COP(=O)(S)CO[C@H]2[C@H]1F (single isomer, unassigned) [Compound 14b]	46	33	23
0.007	17.6	8.2	0.3	Nc1ncnc2c1ncn2[C@@H]1O[C@@H]2COP(=O)(S)O[C@H]3[C@@H](F)[C@H](n4cnc5c(N)ncnc54)O[C@@H]3COP(=O)(S)CO[C@H]2[C@H]1F (single isomer, unassigned) [Compound 14c]	68	44	51
